Experimental data published in publication PMC6315362, “Cytotoxic Potential of the Novel Horseshoe Crab Peptide Polyphemusin III” (Marine Drugs, 2018).
Where a SMILES comes first, the peptide text is derived from it. Bridges are numbered along the chain shown (N, C = ends).

Test system: human cell lines
Test: MTT cytotoxic activity assay, IC50 summarised over cell lines
Assay type: cell-based
Conditions: all human cells tested; MTT 48 h; read-out: IC50 range on human cancer, transformed, and normal cell lines
Experimental: Cytotoxic activities of PM III, its isoforms, and tachyplesins against seven human cell lines were evaluated. Four cancer (HL-60 acute promyelocytic leukemia, HeLa cervix adenocarcinoma, SK-BR-3 breast adenocarcinoma, A549 lung carcinoma), one transformed (HEK 293T transformed human embryonic kidney), and two normal human cell lines (HEF human embryonic fibroblasts and NHA normal human astrocytes) were used for these experiments. Cytotoxicity was measured by incubating the cells with serial dilutions of PM I, PM II, PM III, TP I, TP II, or TP III samples followed by MTT assay after 48 h. The half-maximal inhibitory concentrations (IC50) were measured as the peptide concentration at which cell viability was reduced by 50% in comparison to untreated cells (Table 3).
The colorimetric 3-(4,5-dimethylthiazol-2-yl)-2,5-diphenyltetrazolium bromide (MTT) dye reduction assay was used to determine the cytotoxicity of the polyphemusins and tachyplesins. Cells (3 × 10^3–6 × 10^3 per well) were placed into 96-well plates in Dulbecco’s modified Eagle’s medium (DMEM/F12) supplemented with 10% fetal bovine serum (FBS). […] The absorbance at 570 nm was measured by a microplate reader (Eppendorf, Hamburg, Germany).

Question: `CC(C)[C@@H]1NC(=O)[C@H](CCCNC(=N)N)NC(=O)[C@H](Cc2ccccc2)NC(=O)[C@@H](NC(=O)CNC(=O)[C@H](CCCNC(=N)N)NC(=O)[C@@H](N)CCCNC(=N)N)CSSC[C@@H](C(=O)N[C@@H](CCCNC(=N)N)C(=O)O)NC(=O)[C@H](CCCNC(=N)N)NC(=O)[C@H](CCC(N)=O)NC(=O)[C@H](Cc2ccccc2)NC(=O)[C@@H]2CSSC[C@H](NC1=O)C(=O)N[C@@H](Cc1ccc(O)cc1)C(=O)N[C@@H](CCCNC(=N)N)C(=O)NCC(=O)N[C@@H](Cc1ccccc1)C(=O)N2` [PM III, polyphemusin III] (H-RRGCFRVCYRGFCFQRCR-OH; disulfide 4-17, 8-13 (inferred); N-terminus assumed) was tested. Which IC50 did it give?
Answer: < 10 µM
